# Measurements taken from ChEMBL document CHEMBL5038653, “A Brain-Penetrant and Bioavailable Pyrazolopiperazine BACE1 Inhibitor Elicits Sustained Reduction of Amyloid β In Vivo” (ACS Med Chem Lett, 2022).
# pIC50: −log10 of the molar value.
# How the values were obtained:
# [1] = Ratio of unbound drug concentration in brain to blood in CD-1 mouse at 10 mg/kg, po measured at 4 hr post dose; type: ADME, organism-based
# [2] = Cmax in dog at 2.5 mg/kg, po; type: ADME, organism-based, Canis lupus familiaris; set-up: route oral, dose 2.5 mg/kg; conditions: in vivo
# [3] = Cardiotoxicity in guinea pig assessed as effect on heart rate upto 5 mg/kg, iv administered over 10 mins at 30 mins interval by ECG analysis; type: toxicity, organism-based, Cavia porcellus; conditions: in vivo
# [4] = Clearance in mouse at 0.28 mg/kg, iv relative to liver blood flow; type: ADME, organism-based; conditions: in vivo
# [5] = Metabolic stability in mouse liver microsomes assessed as metabolite formation after 15 mins in presence of NADPH by LC-MS analysis; type: ADME, Microsome; conditions: 0.25 h
# [6] = Half life in dog at 0.25 mg/kg, iv; type: ADME, organism-based, Canis lupus familiaris; conditions: in vivo
# [7] = In vivo inhibition of BACE1 in Beagle dog assessed as reduction of amyloid beta (1 to 42 residues) levels in CSF administered orally by electrochemiluminescence assay; type: functional, organism-based, Canis lupus familiaris
# [8] = In vivo inhibition of CD-1 mouse assessed as remaining amyloid beta (1 to 42 residues) levels in CSF at 10 mg/kg, po measured at 1 hr; type: functional
# [9] = AUC (0 to last) in rat at 2.3 mg/kg, po; type: ADME, organism-based; set-up: time 0 - last, route oral, dose 2.3 mg/kg; conditions: in vivo
# Beta-secretase 2 = biological target: T1, Beta-secretase 2 (Homo sapiens, UniProt Q9Y5Z0); assay: Inhibition of BACE2 (unknown origin)
# T1 sequence (Q9Y5Z0 whole entry): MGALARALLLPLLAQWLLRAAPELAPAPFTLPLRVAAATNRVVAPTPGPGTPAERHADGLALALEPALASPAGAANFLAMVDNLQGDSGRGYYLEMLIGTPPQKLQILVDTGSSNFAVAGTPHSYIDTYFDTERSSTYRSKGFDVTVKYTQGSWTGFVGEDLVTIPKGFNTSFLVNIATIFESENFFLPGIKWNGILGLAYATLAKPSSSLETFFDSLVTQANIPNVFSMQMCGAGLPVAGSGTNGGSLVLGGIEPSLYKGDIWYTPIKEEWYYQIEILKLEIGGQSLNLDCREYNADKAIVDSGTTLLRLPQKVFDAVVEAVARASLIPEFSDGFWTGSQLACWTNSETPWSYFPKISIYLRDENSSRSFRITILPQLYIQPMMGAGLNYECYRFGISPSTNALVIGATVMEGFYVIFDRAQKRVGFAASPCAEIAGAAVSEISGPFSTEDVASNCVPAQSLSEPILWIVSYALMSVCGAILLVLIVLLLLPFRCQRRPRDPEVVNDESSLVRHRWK
# [10] = Volume of distribution at steady state in dog at 0.25 mg/kg, iv; type: ADME, organism-based, Canis lupus familiaris; conditions: in vivo, read-out: Vdss
# [11] = In vivo inhibition of CD-1 mouse assessed as remaining amyloid beta (1 to 42 residues) levels in CSF at 10 mg/kg, po measured at 4 hrs; type: functional
# [12] = Cardiotoxicity in guinea pig assessed as effect on PQ interval upto 5 mg/kg, iv administered over 10 mins at 30 mins interval by ECG analysis; type: toxicity, organism-based, Cavia porcellus; conditions: in vivo
# Cytochrome P450 2C19 = Cytochrome P450 2C19 (Homo sapiens, UniProt P33261); assay: Inhibition of human CYP2C19 by fluorescence plate reader analysis; type: ADME
# Cytochrome P450 2C8 = biological target: T2, Cytochrome P450 2C8 (Homo sapiens, UniProt P10632); assay: Inhibition of human CYP2C8 by fluorescence plate reader analysis; type: ADME
# T2 sequence (P10632 whole entry): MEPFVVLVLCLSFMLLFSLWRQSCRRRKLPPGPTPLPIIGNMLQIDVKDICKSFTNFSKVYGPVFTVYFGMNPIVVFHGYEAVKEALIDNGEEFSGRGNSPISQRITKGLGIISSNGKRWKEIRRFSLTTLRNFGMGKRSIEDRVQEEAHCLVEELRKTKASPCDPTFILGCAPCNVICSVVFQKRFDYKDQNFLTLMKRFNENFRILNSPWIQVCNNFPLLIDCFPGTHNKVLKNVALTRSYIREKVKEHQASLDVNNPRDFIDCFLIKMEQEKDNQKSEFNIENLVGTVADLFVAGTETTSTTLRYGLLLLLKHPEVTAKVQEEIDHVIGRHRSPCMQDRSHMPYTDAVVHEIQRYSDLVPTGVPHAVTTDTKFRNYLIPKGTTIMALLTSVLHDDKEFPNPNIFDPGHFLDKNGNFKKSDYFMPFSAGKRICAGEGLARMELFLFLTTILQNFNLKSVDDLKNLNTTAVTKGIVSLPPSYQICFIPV
# [13] = Toxicity in guinea pig assessed as effect on body temperature at 0.63 to 5 mg/kg, iv administered over 10 mins at 30 mins interval; type: organism-based, Cavia porcellus; conditions: in vivo, dose 0.63-5 mg/kg
# [14] = biological target: Voltage-gated inwardly rectifying potassium channel KCNH2 (Homo sapiens, UniProt Q12809); assay: Inhibition of hERG expressed in HEK293 cells at -80 mV holding potential by automated patch-clamp method; type: toxicity, cell-based
# [15] = AUC (0 to last) in mouse at 2.1 mg/kg, po; type: ADME, organism-based; set-up: route oral, time 0 - last, dose 2.1 mg/kg; conditions: in vivo
# [16] = Cardiotoxicity in guinea pig assessed as effect on blood pressure upto 5 mg/kg, iv administered over 10 mins at 30 mins interval; type: toxicity, organism-based, Cavia porcellus; conditions: in vivo
# Cytochrome P450 1A2 = biological target: T3, Cytochrome P450 1A2 (Homo sapiens, UniProt P05177); assay: Inhibition of human CYP1A2 by fluorescence plate reader analysis; type: ADME
# T3 sequence (P05177 whole entry): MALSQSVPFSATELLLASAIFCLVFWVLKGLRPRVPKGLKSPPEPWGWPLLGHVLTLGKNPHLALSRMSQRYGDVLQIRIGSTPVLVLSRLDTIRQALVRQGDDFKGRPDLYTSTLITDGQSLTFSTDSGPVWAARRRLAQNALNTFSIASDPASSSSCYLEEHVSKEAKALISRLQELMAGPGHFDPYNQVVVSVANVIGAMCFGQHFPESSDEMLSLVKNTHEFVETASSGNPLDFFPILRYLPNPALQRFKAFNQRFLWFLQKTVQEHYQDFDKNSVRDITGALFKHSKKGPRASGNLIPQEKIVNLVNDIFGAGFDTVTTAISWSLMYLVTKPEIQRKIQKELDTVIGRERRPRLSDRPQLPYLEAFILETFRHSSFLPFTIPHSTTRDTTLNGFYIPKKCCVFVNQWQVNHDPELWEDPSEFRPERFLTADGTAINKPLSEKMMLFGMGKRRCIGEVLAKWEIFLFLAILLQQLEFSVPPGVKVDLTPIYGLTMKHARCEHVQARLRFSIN
# [17] = Cmax in rat at 2.3 mg/kg, po; type: ADME, organism-based; set-up: route oral, dose 2.3 mg/kg; conditions: in vivo
# [18] = Cardiotoxicity in guinea pig assessed as effect on QT interval upto 5 mg/kg, iv administered over 10 mins at 30 mins interval by ECG analysis; type: toxicity, organism-based, Cavia porcellus; conditions: in vivo
# [19] = Oral bioavailability in dog at 2.5 mg/kg; type: ADME, organism-based, Canis lupus familiaris; conditions: in vivo
# [20] = Drug level in CD-1 mouse plasma at 10 mg/kg, po measured at 4 hr post dose; type: ADME, organism-based
# [21] = AUC (0 to last) in rat at 2.5 mg/kg, po; type: ADME, organism-based; set-up: route oral, time 0 - last, dose 2.5 mg/kg; conditions: in vivo
# [22] = Volume of distribution at steady state in rat at 0.25 mg/kg, iv; type: ADME, organism-based; conditions: in vivo, read-out: Vdss
# [23] = Cmax in mouse at 2.1 mg/kg, po; type: ADME, organism-based; set-up: route oral, dose 2.1 mg/kg; conditions: in vivo
# Sequence of Voltage-gated inwardly rectifying potassium channel KCNH2 (Q12809 whole entry): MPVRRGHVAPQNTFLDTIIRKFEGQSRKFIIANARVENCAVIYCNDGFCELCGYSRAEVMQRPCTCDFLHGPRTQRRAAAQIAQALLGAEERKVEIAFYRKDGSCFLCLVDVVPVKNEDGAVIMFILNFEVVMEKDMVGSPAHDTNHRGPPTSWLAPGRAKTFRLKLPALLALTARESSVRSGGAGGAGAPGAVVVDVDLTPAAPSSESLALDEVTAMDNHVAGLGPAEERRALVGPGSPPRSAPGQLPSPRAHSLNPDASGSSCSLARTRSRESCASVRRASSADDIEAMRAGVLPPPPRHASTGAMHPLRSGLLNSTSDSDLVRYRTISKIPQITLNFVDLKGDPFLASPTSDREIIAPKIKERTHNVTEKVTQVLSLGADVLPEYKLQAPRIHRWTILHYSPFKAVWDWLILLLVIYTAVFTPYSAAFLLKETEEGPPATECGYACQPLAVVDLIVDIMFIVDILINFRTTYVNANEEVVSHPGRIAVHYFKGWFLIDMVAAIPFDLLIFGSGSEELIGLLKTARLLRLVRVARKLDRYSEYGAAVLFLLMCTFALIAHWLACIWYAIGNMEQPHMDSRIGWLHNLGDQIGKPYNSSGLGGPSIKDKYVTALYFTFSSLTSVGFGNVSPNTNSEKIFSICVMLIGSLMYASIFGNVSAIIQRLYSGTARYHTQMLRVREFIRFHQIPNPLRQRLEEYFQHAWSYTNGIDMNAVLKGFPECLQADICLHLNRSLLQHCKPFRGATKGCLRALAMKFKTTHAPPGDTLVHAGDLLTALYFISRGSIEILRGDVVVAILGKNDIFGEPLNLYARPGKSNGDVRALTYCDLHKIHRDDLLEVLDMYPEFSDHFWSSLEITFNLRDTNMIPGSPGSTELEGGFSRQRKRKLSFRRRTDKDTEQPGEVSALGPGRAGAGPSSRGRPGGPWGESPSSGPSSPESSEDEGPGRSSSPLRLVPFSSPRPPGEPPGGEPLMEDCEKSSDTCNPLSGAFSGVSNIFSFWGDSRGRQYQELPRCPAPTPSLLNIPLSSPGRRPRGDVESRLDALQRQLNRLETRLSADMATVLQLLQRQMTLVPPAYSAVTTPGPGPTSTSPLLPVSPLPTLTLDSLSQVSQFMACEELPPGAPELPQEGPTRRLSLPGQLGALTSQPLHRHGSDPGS
# Sequence of Cytochrome P450 2C19 (P33261 whole entry): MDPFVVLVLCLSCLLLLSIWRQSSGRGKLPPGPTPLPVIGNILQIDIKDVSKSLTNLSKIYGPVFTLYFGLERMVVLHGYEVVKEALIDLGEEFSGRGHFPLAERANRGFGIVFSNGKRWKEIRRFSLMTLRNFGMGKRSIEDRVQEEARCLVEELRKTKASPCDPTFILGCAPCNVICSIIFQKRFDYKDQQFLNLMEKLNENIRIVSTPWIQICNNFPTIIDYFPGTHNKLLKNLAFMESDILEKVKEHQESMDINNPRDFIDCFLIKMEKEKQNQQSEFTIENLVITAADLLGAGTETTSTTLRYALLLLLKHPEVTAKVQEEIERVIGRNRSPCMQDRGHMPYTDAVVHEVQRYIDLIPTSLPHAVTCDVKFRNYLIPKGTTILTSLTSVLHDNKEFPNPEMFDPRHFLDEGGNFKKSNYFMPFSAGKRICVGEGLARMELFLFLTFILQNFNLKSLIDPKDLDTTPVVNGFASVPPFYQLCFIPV
structure (smiles),measurement,setting,value
COc1cnc(C(=O)Nc2ccc(F)c([C@]3(C)Cn4nc(C#N)cc4C(N)=N3)c2)cn1,Kp uu at 4 h,[1],0.22
same,Cmax,[2],352 ng/mL
same,Activity,[3],Non-Toxic
same,CL,[4],25%
same,Drug metabolism,[5],23%
same,half-life,[6],7.7 h
same,EC90,[7],44 ng/mL
same,EC50,"[7]; Canis lupus familiaris, Beagle",7.5 ng/mL
same,Activity,[8],74%
same,AUClast,[9],1170 ng·h/mL
same,pIC50,Beta-secretase 2,7.94
same,Vd,[10],4.2 L/kg
same,Activity,[11],45%
same,Activity,[12],Non-Toxic
same,pIC50,Cytochrome P450 2C19,< 4.52
same,pIC50,Cytochrome P450 2C8,< 4.52
same,Activity,[13],Non-Toxic
same,pIC50,[14],< 5.00
same,AUClast,[15],1910 ng·h/mL
same,Activity,[16],Non-Toxic
same,pIC50,Cytochrome P450 1A2,< 4.52
same,Cmax,[17],124 ng/mL
same,Activity,[18],Non-Toxic
same,bioavailability,[19],67%
same,concentration at 4 h,[20],530 ng/mL
same,AUClast,[21],3840 ng·h/mL
same,Vd,[22],5.3 L/kg
same,Cmax,[23],160 ng/mL
